Data from patent US20080145313A1, “Compositions and Methods for the Treatment and Prevention of Neoplastic Disorders” (Genesis Research & Development Corporation Limited, priority 2006, published 2008).

What follows are substances tested on A549 cells (assay: Growth inhibition of siRNA-transfected A549 cells, SYBR Green I DNA content). Conditions: 10 nM siRNA; DNA content 96 hours after transfection.
Type: cell-based, human
Method in brief: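 Growth read-out: cellular DNA quantified with SYBR Green I (485/535 nm) 96 h after transfection, cells frozen, thawed and lysed in PBS/1% Triton X-100, pH 7. Cells (A549, 5×10^3 cells/cm^2) received 10 nM siRNA by RNAiMAX; non-specific siRNA served as control; triplicate wells averaged.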

Row | Substance | Growth Inhibition in A549 cells
1 | SEQ ID NO: 4866: siRNA targeting UQCRC2 (chain 1 ACACCAAGTCCAATCAAAGCCATTC; chain 2 ACACCAAGUCCAAUCAAAGCCAUUC; Both strands are one antisense strand in DNA/RNA notation, chemistry not given here, further chemistry not given here; one strand in two spellings) | − (no growth inhibition with any siRNA)
2 | SEQ ID NO: 4806: siRNA targeting ARNT (HIF-1β) (chain 1 ATCAGTGGATGTGTTGCCAGTTCCC; chain 2 AUCAGUGGAUGUGUUGCCAGUUCCC; chemistry not given here; one strand in two spellings) | − (no growth inhibition with any siRNA)
3 | SEQ ID NO: 4861: siRNA targeting SLC25A5 (ANT2) (chain 1 ATTTGTAGATCTTAACCAGGCAGTC; chain 2 AUUUGUAGAUCUUAACCAGGCAGUC; Both strands are one antisense strand in DNA/RNA notation, chemistry not given here, further chemistry not given here; one strand in two spellings) | − (no growth inhibition with any siRNA)
4 | SEQ ID NO: 4880: siRNA targeting IMPDH2 (chain 1 TCCCTGTTCATATTTCTTCACTTTC; chain 2 UCCCUGUUCAUAUUUCUUCACUUUC; Both strands are one antisense strand in DNA/RNA notation, chemistry not given here, further chemistry not given here; one strand in two spellings) | + (inhibits by at least 50%)
5 | SEQ ID NO: 4838: siRNA targeting DHFR (chain 1 TTCTGGCAGAAGTTTATATTTCTCC; chain 2 UUCUGGCAGAAGUUUAUAUUUCUCC; chemistry not given here; one strand in two spellings) | + (inhibits by at least 50%)
6 | SEQ ID NO: 4878: siRNA targeting IMPDH2 (chain 1 AAATTTGTGGATTGACCCTTTGTCC; chain 2 AAAUUUGUGGAUUGACCCUUUGUCC; Both strands are one antisense strand in DNA/RNA notation, chemistry not given here, further chemistry not given here; one strand in two spellings) | − (no growth inhibition with any siRNA)
7 | SEQ ID NO: 4848: siRNA targeting COX5A (chain 1 ATAGCAGCGAACTGACTGGATAGCC; chain 2 AUAGCAGCGAACUGACUGGAUAGCC; chemistry not given here; one strand in two spellings) | ++ (inhibits by at least 75%)
8 | SEQ ID NO: 4868: siRNA targeting UQCRC2 (chain 1 TTGCGGTCACACTTAATTTGCCACC; chain 2 UUGCGGUCACACUUAAUUUGCCACC; Both strands are one antisense strand in DNA/RNA notation, chemistry not given here, further chemistry not given here; one strand in two spellings) | + (inhibits by at least 50%)
9 | SEQ ID NO: 4994: siRNA targeting TK2 (chain 1 CCTGAGACTTGTTACCAGAGGTTAA; chain 2 CCUGAGACUUGUUACCAGAGGUUAA; chemistry not given here; one strand in two spellings) | − (no growth inhibition with any siRNA)
10 | SEQ ID NO: 4839: siRNA targeting AK1 (chain 1 TTCTGCACGATCTTCTCACACTGGG; chain 2 UUCUGCACGAUCUUCUCACACUGGG; chemistry not given here; one strand in two spellings) | − (no growth inhibition with any siRNA)
11 | SEQ ID NO: 4862: siRNA targeting SLC25A5 (ANT2) (chain 1 AGAACATTGGACCATGCACCCTTGA; chain 2 AGAACAUUGGACCAUGCACCCUUGA; Both strands are one antisense strand in DNA/RNA notation, chemistry not given here, further chemistry not given here; one strand in two spellings) | − (no growth inhibition with any siRNA)
12 | SEQ ID NO: 4842: siRNA targeting NADSYN (chain 1 TAGCTGATCTGGTTCACGATGGTGC; chain 2 UAGCUGAUCUGGUUCACGAUGGUGC; chemistry not given here; one strand in two spellings) | + (inhibits by at least 50%)
13 | SEQ ID NO: 4846: siRNA targeting FLAD1 (chain 1 TGATGTGTATCCTCGGTCATACAGG; chain 2 UGAUGUGUAUCCUCGGUCAUACAGG; chemistry not given here; one strand in two spellings) | − (no growth inhibition with any siRNA)
14 | SEQ ID NO: 4852: siRNA targeting ATP5B (chain 1 AATCATTGCCTTCACGGGTCCTCTC; chain 2 AAUCAUUGCCUUCACGGGUCCUCUC; Both strands are one antisense strand in DNA/RNA notation, chemistry not given here, further chemistry not given here; one strand in two spellings) | − (no growth inhibition with any siRNA)
15 | SEQ ID NO: 4851: siRNA targeting ATP5B (chain 1 TTTCCATGAACTCTGGAGCCTCAGC; chain 2 UUUCCAUGAACUCUGGAGCCUCAGC; Both strands are one antisense strand in DNA/RNA notation, chemistry not given here, further chemistry not given here; one strand in two spellings) | − (no growth inhibition with any siRNA)
16 | SEQ ID NO: 4849: siRNA targeting COX5A (chain 1 CAATTCCCAGGCATCTATATCTGGC; chain 2 CAAUUCCCAGGCAUCUAUAUCUGGC; chemistry not given here; one strand in two spellings) | − (no growth inhibition with any siRNA)
17 | SEQ ID NO: 4809: siRNA targeting H6PD (G6PDH) (chain 1 TTTGCCAGACATCAGGATGAAAGGC; chain 2 UUUGCCAGACAUCAGGAUGAAAGGC; chemistry not given here; one strand in two spellings) | ++ (inhibits by at least 75%)
18 | SEQ ID NO: 5003: siRNA targeting DPYD (chain 1 GGCTACAAAGCTGCTTTCATTGGAA; chain 2 GGCUACAAAGCUGCUUUCAUUGGAA; chemistry not given here; one strand in two spellings) | − (no growth inhibition with any siRNA)
19 | SEQ ID NO: 4828: siRNA targeting CAD (chain 1 TGTCTGAGAAGCCAAGACACTTGGC; chain 2 UGUCUGAGAAGCCAAGACACUUGGC; chemistry not given here; one strand in two spellings) | − (no growth inhibition with any siRNA)
20 | SEQ ID NO: 4817: siRNA targeting LDHA/5 (chain 1 TATACTCTCTGCCAAATCTGCTACA; chain 2 UAUACUCUCUGCCAAAUCUGCUACA; chemistry not given here; one strand in two spellings) | − (no growth inhibition with any siRNA)
21 | SEQ ID NO: 4990: siRNA targeting TK1 (chain 1 GACATCATGGAGTTCTGCGAGGCCA; chain 2 GACAUCAUGGAGUUCUGCGAGGCCA; chemistry not given here; one strand in two spellings) | − (no growth inhibition with any siRNA)
22 | SEQ ID NO: 5002: siRNA targeting DPYD (chain 1 GCCACTGAAGAGGGACCCATTAATA; chain 2 GCCACUGAAGAGGGACCCAUUAAUA; chemistry not given here; one strand in two spellings) | − (no growth inhibition with any siRNA)

Same assay, conditions: A549 cells, 10 nM siRNA, DNA content 96 hours after transfection, transporter gene targets

Row | Substance | Growth Inhibition in A549 cells by 10 nM siRNA
23 | SEQ ID NO: 4951: siRNA targeting ATP6V1A (chain 1 AAATGGCTCCCATAATGCCAGGACC; chain 2 AAAUGGCUCCCAUAAUGCCAGGACC; chemistry not given here; one strand in two spellings) | + (inhibits by at least 50%)
24 | SEQ ID NO: 4979: siRNA targeting ABCB1 (MDR1) (chain 1 TAATTATTCCTGTCCCAAGATTTGC; chain 2 UAAUUAUUCCUGUCCCAAGAUUUGC; chemistry not given here; one strand in two spellings) | − (no growth inhibition)
25 | SEQ ID NO: 4942: siRNA targeting ATP2B2 (PMCA2) (chain 1 TTCCAGGTCGGTGTCATCAATGAGG; chain 2 UUCCAGGUCGGUGUCAUCAAUGAGG; chemistry not given here; one strand in two spellings) | − (no growth inhibition)
26 | SEQ ID NO: 4940: siRNA targeting ATP2B2 (PMCA2) (chain 1 TTCTTGTGCATGCTGGCCTTCTTCC; chain 2 UUCUUGUGCAUGCUGGCCUUCUUCC; chemistry not given here; one strand in two spellings) | ++ (inhibits by at least 75%)
27 | SEQ ID NO: 4943: siRNA targeting ATP2B3 (PMCA3) (chain 1 AAACGTCTCAATCACAAAGTAGAGG; chain 2 AAACGUCUCAAUCACAAAGUAGAGG; chemistry not given here; one strand in two spellings) | − (no growth inhibition)
28 | SEQ ID NO: 4944: siRNA targeting ATP2B3 (PMCA3) (chain 1 AAAGCTTGTCTTCCGGGATCTGCTC; chain 2 AAAGCUUGUCUUCCGGGAUCUGCUC; chemistry not given here; one strand in two spellings) | − (no growth inhibition)
